Assay results from PMC12654037, “Norditerpene Natural Products from Subterranean Fungi with Anti-Parasitic Activity” (Microorganisms, 2025).
Read-outs that look alike come from different tables or passages of the source.

Assays:
TgRH-Luc:GFP = assay: T. gondii -static versus -cidal washout assay; type: cell-based, Toxoplasma gondii; conditions: for treatment time after which T. gondii did not recover (killing time): at EC90 15 µM, compound washed out, read 48 h post-infection
Procedure: T. gondii growth inhibition assays: The T. gondii inhibition assay was described previously. Briefly, HFF cells were seeded onto white-sided, clear-bottom 96 well plates, grown to confluence, and then 5000 TgRH-Luc:GFP parasites were added to each well. At 24 hpi, compounds or DMSO were added. The growth of the parasites was determined by relative luminescence at 48 hpi using Promega Bright-Glo (Promega, Madison, WI, USA) substrate. Plates were read, and the percent inhibition of parasite growth was calculated as described above. Determination of -static versus -cidal activity was conducted as indicated above, with parasite growth quantified after 48 h of infection. Each sample was run in triplicate, and each experiment was repeated three times.

C. parvum = C. parvum growth inhibition assay (Cp-NLuc-infected HCT-8 cells); type: cell-based, Cryptosporidium parvum; conditions: Cryptosporidium parvum
Procedure: C. parvum growth inhibition assays: The in vitro growth inhibition assay of C. parvum has been previously described. Briefly, clear-bottom, white-sided 96 well plates were seeded with HCT-8 cells. Once the cells reached between 50% and 75% confluency, they were infected with Cp-NLuc oocysts (10,000/well) in complete media containing 0.6% taurocholate. At 24 h post-infection (hpi), the infected cells were treated with compounds at various concentrations. DMSO was used as a vehicle control in parallel. Parasite growth was determined at 72 hpi by measuring relative luminescence units (RLUs) using Promega Nano-Glo substrate (Promega, Madison, WI, USA) and a SpectraMax® L Microplate Reader (Molecular Devices, San Jose, CA, USA). The percent inhibition of parasite growth was calculated as [(RLUDMSO − RLUcompound)/RLUDMSO] × 100.

[1] = test system: G. lamblia WBC6 and CBG99 trophozoites; assay: Giardia lamblia trophozoite growth inhibition assay; type: cell-based
Procedure: Compound inhibition assay against Giardia lamblia WBC6 and CBG99 trophozoites: Biological replicates of growth inhibition assays were performed using wild-type G. lamblia WBC6 and G. lamblia CBG99 trophozoites at 37 °C under reduced oxygen conditions in a sealed 0.5 mL airtight sterile tube (USA Scientific, Ocala, FL, USA), following the susceptibility assay described below. G. lamblia trophozoites were grown in TYI-S-33 medium supplemented with 10% bovine serum and 0.05 mg/mL bovine bile, as previously described. A 3-fold serial concentration of pure compounds starting at 29 µM was screened against 75,000 cells/mL of parasites in modified TYI-S-33 medium with a final dimethyl sulfoxide (DMSO) concentration of 0.14%. Metronidazole was run in parallel at a final highest concentration of 66.7 µM and 3-fold subsequent serial dilutions. The untreated negative control contained 0.14% of DMSO. Sealable test tubes filled to its maximum volume of 700 µL were used to perform this assay. The test tubes were incubated at 37 °C for 72 h. After incubation, the tubes were chilled on ice, and the reaction was transferred to 96-well plates. In the plate, 50 µL of an ATP binding luminescence marker, CellTiter-Glo (Promega, Madison, WI, USA) or 10 µL of 2.5 mg/mL d-luciferin (GoldBio, St Louis, MO, USA) was added to each well and allowed to develop at room temperature for 10 min [31, 36]. The assay was read and analyzed using an EnVision Plate Reader (Perkin Elmer, Waltham, MA, USA). Response curves and EC50 values (the concentration at which 50% of G. lamblia trophozoite growth was inhibited) were calculated using GraphPad Prism (GraphPad, LaJolla, CA, USA).

[2] = PAMPA membrane permeability assay; type: in vitro ADME
Procedure: PAMPA membrane permeability assay. The membrane permeability of selected compounds was evaluated using the Corning® BioCoat^TM Pre-coated PAMPA Plate System (catalog. No. 353015, Corning, Glendale, AZ, USA). The pre-coated plate assembly, which was stored at −20 °C, was thawed for 30 min at room temperature. The permeability assay was carried out in accordance with the manufacturer’s protocol. Briefly, the 96-well filter plate, pre-coated with lipids, was used as the permeation acceptor and a matching 96-well receiver plate was used as the permeation donor. […] At the end of the incubation, the plate was separated, and the final concentrations of compounds in both donor wells and acceptor wells were analyzed using LC-MS/MS. Permeability of the compounds was calculated using Equation (1): Pe = {−ln [1 − CA(t)/Ceq]}/[A × (1/VD + 1/VA) × t](1) where A = filter area (0.3 cm^2), VD = donor well volume (0.3 mL), VA = acceptor well volume (0.2 mL), t = incubation time (seconds), CA(t) = compound concentration in acceptor well at time t, and CD(t) = compound concentration in donor well at time t. Ceq was calculated using Equation (2): Ceq = [CD(t) × VD + CA(t) × VA]/(VD + VA)(2) […]

[3] = Microsomal stability assay, human; conditions: microsomes, pH 7.4
Procedure: Microsomal stability assay. The in vitro microsomal stability assay was conducted in duplicate in commercially available mouse or human liver microsomes (Sekisui XenoTech, Kansas City, KS, USA), which were supplemented with nicotinamide adenine dinucleotide phosphate (NADPH) as a cofactor. […] The reaction was initiated by the addition of 1 mmol/L NADPH, followed by incubation at 37 °C. A negative control was performed in parallel without NADPH to reveal any chemical instability or non-NADPH dependent enzymatic degradation for each compound. […] At various time points (0, 5, 15, 30, and 60 min), a 40 µL of reaction aliquot was taken and quenched with 120 µL of acetonitrile containing 0.1% formic acid. The samples were then vortexed and centrifuged at 15,000 rpm for 5 min at 4 °C. The supernatants were collected and analyzed by LC-MS/MS to determine the in vitro metabolic half-life (t1/2).

in vitro = in vitro ADME; conditions: plasma
Procedure: Plasma stability assay. The plasma stability assay was performed in duplicate by incubating each selected compound (1 µmol/L final concentration) in normal mouse (CD-1) or human plasma (Innovative Research, Novi, MI, USA) at 37 °C.

CO[C@H]1OC(=O)C=C2[C@@]13O[C@@H]3[C@H]1OC(=O)[C@@]3(C)CCC[C@@]2(C)[C@@H]13 [compound 1, oidiolactone A]
EC90 (TgRH-Luc:GFP; Toxoplasma gondii): 15 µM
treatment time after which T. gondii did not recover (killing time) (TgRH-Luc:GFP; listed as Oidiolactone A): ≤ 24 h
treatment time after which T. gondii did not recover (killing time) (TgRH-Luc:GFP; listed as oidiolactone A): 8 to 12 h
EC50 (C. parvum; HCT-8, read-out: EC50 against C. parvum): 530 nM
EC50 (C. parvum; Cp-NLuc-infected HCT-8 cells, 7.5 µM to 117 nM, Figure 2E, read-out: C. parvum EC50): 529 nM
activity against G. lamblia (no activity up to) ([1]; 72 h): > 29 µM
EC50 ([1]; Giardia duodenalis, read-out: EC50 G. lamblia): > 30 µM
Papp at 5 h, 100 μmol/L ([2]; PAMPA, 25 °C, 5 h, 100 μmol/L, read-out: PAMPA Pe): 11 ± 1.3 ×10⁻⁶ cm/s
PAMPA permeability class ([2]; cutoff Pe 1.5 × 10^−6 cm/s): high passive permeability
half-life at 1 µmol/L [3]: 318 ± 16.7 min
half-life at 1 µmol/L (in vitro; CD-1, mouse, 1 µmol/L, 37 °C, mean ± SD, read-out: Mouse Plasma Stability t½): 106 ± 1.7 min
half-life at 1 µmol/L (in vitro; CD-1, mouse, discussion, read-out: half-life in mouse blood plasma): < 120 min
half-life at 1 µmol/L (in vitro; human, 37 °C, mean ± SD, read-out: Human Plasma Stability t½): 17.5 ± 0.1 min
